In data set [1] the test system is NCI-H460 cells. Briefly: Apoptosis by flow cytometry (Annexin V-FITC/PI). In kind it is cell-based, human. To be noted: NCI-H460, compound at GI50 concentration (1.4 μM), 48 h, Annexin V/Propidium iodide. Here is the method: Following 48 h treatment of NCI-H460 cells with compound 3c, as described above, the levels of apoptosis were analysed by flow cytometry using the Human Annexin V-FITC/PI apoptosis kit (Bender MedSystems, Vienna, Austria), according to the manufacturer’s instructions. Flow cytometry was carried out using an Epics XL-MCL Coulter flow cytometer plotting at least 20,000 events per sample, as previously described. The data was analysed using the FlowJo 7.2 software (Tree Star, Inc.).
(In general: A flow cytometer gives signals particle by particle.)

The test system of data set [2] is NCI-H460 cells. Nature of the data set: Cell cycle distribution profile by flow cytometry (propidium iodide). In kind it is cell-based, human. The settings on record: NCI-H460, compound at GI50 concentration (1.4 μM), 48 h. On the procedure:
NCI-H460 cells were plated in 6-well plates at a final density of 1.5 × 10^5 cells/well and incubated at 37 °C for 24 h. […] As controls, cells were also incubated with medium only (blank) and with the compound’s vehicle (DMSO). Following 48 h of treatment, cells were fixed overnight in ice-cold 70% ethanol and re-suspended in PBS containing 0.1 mg/mL RNase A and 5 µg/mL propidium iodide. Cellular DNA content was analysed by flow cytometry using an Epics XL-MCL Coulter Flow cytometer (Brea, CA, USA) plotting at least 20,000 events per sample, as previously described. The analysis of cell cycle distribution was subsequently performed using the FlowJo 7.2 software (Tree Star, Inc., Ashland, USA) after cell debris and aggregates exclusion.

Data set [3] has as its system human tumor cell lines MCF-7, A375-C5, NCI-H460 and HepG2. Briefly: SRB cell growth inhibition, all tested human tumor cell lines (summary). To be noted: span over MCF-7, A375-C5, NCI-H460, HepG2, 48 h. The data set is classed as cell-based. On the procedure: (§1) The effects of the aminodi(hetero)arylamines in the growth of four human tumour cell lines (MCF-7, A375-C5, NCI-H460 and HepG2) were evaluated using the SRB assay. Doxorubicin and ellipticine were used as positive controls. Furthermore, to investigate the possible toxicity of the compounds, the in vitro cell growth inhibition assay (SRB) was also performed using porcine liver non-tumor cells (PLP1) established by us.
(§2) The effects of the compounds on the in vitro growth of human tumor cell lines and non-tumor porcine liver primary cells were evaluated according to the procedure adopted by the NCI (USA) in their “In vitro Anticancer Drug Discovery Screen”, using the SRB assay to assess cell growth.
For the cell lines, exponentially growing cells were obtained by plating 1.5 × 10^5 cells/mL for MCF-7, 0.75 × 10^5 cells/mL for A375-C5 and NCI-H460, and 5.0 × 10^5 cells/mL for HepG2, followed by 24 h of incubation. […]
Following a 24 h period to allow cells to adhere, cells were treated for 48 h with six serial dilutions of each test compound, starting from a maximum concentration of 125 µM. […] The bound stain was solubilized and the absorbance was measured at 492 nm in the case of MCF-7, NCI-H460 and A375-C5 cells and at 515 nm in the case od HepG2 and PLP1 primary cells, in a plate reader (Biotek Instruments Inc., Powerwave XS, Bedfordshire, UK). […]

A further data set concerns A375-C5 (melanoma). Nature of the data set: SRB cell growth inhibition assay, A375-C5. In kind it is cell-based. To be noted: Homo sapiens, A375-C5, 48h continuous treatment, mean ± SD, n = 3. On the procedure: as §1
(§3) Four human tumor cell lines, MCF-7 (breast adenocarcinoma), A375-C5 (melanoma), NCI-H460 (non-small cell lung cancer) and HepG2 (hepatocellular carcinoma) were used. MCF-7, A375-C5 and HepG2 were obtained from the European Collection of Cell Cultures (ECACC, Salisbury, UK) and NCI-H460 was kindly provided by the National Cancer Institute (NCI, Bethesda, MD, USA). Cells were routinely maintained as adherent cell cultures in RPMI-1640 medium supplemented with 5% FBS (MCF-7, NCI-H460 and A375-C5 cells) or in DMEM supplemented with 10% FBS, 2 mM glutamine, 100 U/mL penicillin and […] streptomycin (HepG2 cells), at 37 °C in a humidified atmosphere containing 5% CO2.
as §2
(§4) For the cell lines, exponentially growing cells were obtained by plating 1.5 × 10^5 cells/mL for MCF-7, 0.75 × 10^5 cells/mL for A375-C5 and NCI-H460, and 5.0 × 10^5 cells/mL for HepG2, followed by 24 h of incubation. For the primary porcine liver cells, cells were incubated in 96-well plates at a density of 5.0 × 10^5 cells/mL, and cultivated in DMEM medium with 10% FBS, 100 U/mL penicillin and […] streptomycin.
(§5) Following a 24 h period to allow cells to adhere, cells were treated for 48 h with six serial dilutions of each test compound, starting from a maximum concentration of 125 µM. Following the 48 h treatment period, adherent cells were fixed in situ, washed and stained with SRB. The bound stain was solubilized and the absorbance was measured at 492 nm in the case of MCF-7, NCI-H460 and A375-C5 cells and at 515 nm in the case od HepG2 and PLP1 primary cells, in a plate reader (Biotek Instruments Inc., Powerwave XS, Bedfordshire, UK). Dose response curves were obtained and the concentration of the diarylamine that inhibited 50% of the net cell growth (GI50) was calculated as described elsewhere. Doxorubicin and ellipticine were used as positive controls of cell growth inhibition.

In data set [4] the test system is MCF-7 (breast adenocarcinoma). Briefly: SRB cell growth inhibition assay, MCF-7. The data set is classed as cell-based. The settings on record: Homo sapiens, MCF7, MCF-7, 48h continuous treatment, mean ± SD, n = 3. Here is the method: as §1, §3, §2, §4, §5
Data set [5] deals with NCI-H460 (non-small cell lung cancer). Briefly: SRB cell growth inhibition assay, NCI-H460. In kind it is cell-based. The settings on record: Homo sapiens, NCI-H460, 48h continuous treatment, mean ± SD, n = 3. Here is the method: as §1, §3, §2, §4, §5
Data set [6] concerns HepG2 (hepatocellular carcinoma). Briefly: SRB cell growth inhibition assay, HepG2. The data set is classed as cell-based. The settings on record: Homo sapiens, HepG2, 48h continuous treatment, mean ± SD, n = 3. Here is the method:
as §1, §3, §2, §4, §5

In data set [7] the test system is porcine liver primary cell culture (PLP1). Briefly: SRB toxicity assay in non-tumor porcine liver primary cells. The data set is classed as cell-based. On the procedure:
as §1
(§6) Porcine liver primary cell culture (PLP1) was prepared from freshly harvested porcine liver, obtained from a local slaughter house. Briefly, the liver tissue was rinsed in HBSS solution containing 100 U/mL penicillin, 100 µg/mL streptomycin and divided into 1 × 1 mm^3 explants. Some of these explants were placed in 25 cm^2 tissue flasks in DMEM medium supplemented with 10% FBS, 2 mM nonessential amino acids, 100 U/mL penicillin and […] streptomycin. This cell culture was maintained according to the procedure described previously by us.
as §2, §4, §5
Background: The SRB assay estimates cell density from bound dye.

Assay in data set [8]: as above
The settings on record: pig, porcine liver primary cell culture (PLP1), non-tumor, PLP1 non-tumor porcine liver cells, 48h continuous treatment, SRB, mean ± SD, n = 3. In kind it is cell-based. On the procedure:
as §1, §6, §2, §4, §5

The melting point is the temperature, or range, at which the solid turns liquid. As to `COC(=O)c1sc2cccnc2c1Nc1ccccc1[N+](=O)[O-]` [2b, Methyl 3-(2-nitrophenylamino)thieno[3,2-b]pyridine-2-carboxylate], the melting point was in the range of 202 to 204 °C.
Turning to `COC(=O)c1sc2cccnc2c1Nc1ccc(OC)cc1[N+](=O)[O-]` [2c, Methyl 3-(4-methoxy-2-nitrophenylamino)thieno[3,2-b]pyridine-2-carboxylate], the melting point lay in the range of 213 to 214 °C.
The term GI50 denotes the concentration giving 50% growth inhibition. As for `COC(=O)c1sc2cccnc2c1Nc1ccc(OC)cc1N` [3c, Methyl 3-(2-amino-4-methoxhyphenylamino)thieno[3,2-b]pyridine-2-carboxylate], the melting point was in the range of 172 to 174 °C. In addition, the “percentage of apoptotic cells” value in the data set on NCI-H460 cells [1] was found to be 36.6 ± 4.8%. The “percentage of cells in the G0/G1 phase of the cell cycle (in words)” value in the data set on NCI-H460 cells [2] was “significant decrease”. The “% of cells in the sub-G1 peak (in words)” value in the data set on NCI-H460 cells [2] (data not shown) is “significantly increased”. This molecule showed a 50% growth inhibitory concentration (GI50) in [3] of under 2 µM. The same molecule had a GI50 in the data set with A375-C5 (melanoma) of 1.3 ± 0.1 µM. Halving of growth in data set [4] (GI50) required 1.4 ± 0.2 µM. The molecule also returned a GI50 in [5] of 1.4 ± 0.4 µM. The molecule further returned a 50% growth inhibitory concentration (GI50) in [6] of 1.63 ± 0.09 µM. Besides, the “toxicity to non-tumor cells (in words)” value in data set [7] (PLP1, at the GI50 concentrations found in tumor cell lines / versus ellipticine) is “did not show toxicity”. The molecule also came in with a concentration for 50% growth inhibition (GI50) at 48 h in data set [8] of 12.5 µM.
Take `COC(=O)c1sc2cccnc2c1Nc1ccccc1N` [3b, Methyl 3-(2-aminophenylamino)thieno[3,2-b]pyridine-2-carboxylate]: the melting point was 204 to 206 °C. The same molecule showed a GI50 in the data set with A375-C5 (melanoma) of 26 ± 2.3 µM. Further, the 50% growth inhibitory concentration (GI50) in data set [4] was determined as 33.8 ± 1.7 µM. The GI50 in data set [5] was found to be 31.3 ± 2.9 µM. In data set [6], halving of growth (GI50) required 99.26 ± 0.92 µM. Moreover, the GI50 at 48 h in data set [8] stood at 61.3 µM.
As for `COc1cccc2c1C(=O)c1c(O)c3c(c(O)c1C2=O)C[C@@](O)(C(=O)CO)C[C@@H]3O[C@H]1C[C@H](N)[C@H](O)[C@H](C)O1` [Doxorubicin, reference compound], the GI50 is 0.13 ± 0.01 µM in the data set on A375-C5 (melanoma), 0.04 ± 0.01 µM in data set [4] and 0.09 ± 0.01 µM in data set [5].
As to `Cc1c2ccncc2c(C)c2c1[nH]c1ccccc12` [Ellipticine, reference compound], the 50% growth inhibitory concentration (GI50) was determined as 0.8 ± 0.05 µM in data set [6] and 4.19 µM in data set [7] (PLP1 non-tumor porcine liver cells, 48h continuous treatment, SRB, mean ± SD, n = 3). Moreover, the concentration for 50% growth inhibition (GI50) at 48 h in [8] worked out at 4 µM.
`COC(=O)c1sc2cccnc2c1Nc1ccc([N+](=O)[O-])cc1` [2a, Methyl 3-(4-nitrophenylamino)thieno[3,2-b]pyridine-2-carboxylate] displayed a melting point of 203 to 205 °C.
Consider `COC(=O)c1sc2cccnc2c1Nc1ccc(N)cc1` [3a, Methyl 3-(4-aminophenylamino)thieno[3,2-b]pyridine-2-carboxylate], for which the GI50 with A375-C5 (melanoma) is 112 ± 5 µM; in data set [4] it was over 125 µM; in data set [5], over 125 µM; in data set [6], over 125 µM. The GI50 at 48 h in data set [8] was over 125 µM.
